Source: US11932600B2, “Biaryl derivative” (DAIICHI SANKYO COMPANY, LIMITED, priority 2018, dated 2024)
pIC50: −log10 of the molar value.

biological target: T1, human TNAP (Homo sapiens, UniProt P05186); experiment: Inhibitory test of TNAP activity (pNPP substrate, p-nitrophenol production); type: biochemical; settings: human TNAP from culture supernatant of transfected COS1 cells, 60 minutes at room temperature, ABS 405 nm
T1 construct: host or cells: COS1 cells, concentrated and dialyzed culture supernatant
T1 sequence (P05186 18-502 limits assumed): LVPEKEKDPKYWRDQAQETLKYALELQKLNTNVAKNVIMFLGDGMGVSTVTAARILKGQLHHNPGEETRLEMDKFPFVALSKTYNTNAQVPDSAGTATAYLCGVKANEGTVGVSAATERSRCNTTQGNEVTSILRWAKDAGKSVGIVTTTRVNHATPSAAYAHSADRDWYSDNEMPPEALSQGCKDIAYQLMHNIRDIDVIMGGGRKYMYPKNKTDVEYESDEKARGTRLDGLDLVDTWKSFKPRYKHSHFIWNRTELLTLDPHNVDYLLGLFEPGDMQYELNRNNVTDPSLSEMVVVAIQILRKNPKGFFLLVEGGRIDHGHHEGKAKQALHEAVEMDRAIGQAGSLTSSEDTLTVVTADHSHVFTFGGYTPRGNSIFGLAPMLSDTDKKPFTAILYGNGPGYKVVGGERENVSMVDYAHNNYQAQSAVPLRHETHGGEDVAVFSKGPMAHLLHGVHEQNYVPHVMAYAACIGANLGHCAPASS
Protocol: <Test Examples> (Test Example 1) Inhibitory Test of TNAP Activity
COS1 cells (DS Pharma Biomedical Co., Ltd.) were transfected with human TNAP (OriGene Technologies, Inc.) using Lipofectamine LTX & Plus reagent (Invitrogen Corp.). On the next day, the medium was replaced with a fresh medium, and the cells were cultured in an incubator for 3 days. After 3 days, the culture supernatant was collected and concentrated by centrifugation at 5000 G for 30 minutes using Amicon 14, 10^4 cut (Merck Millipore). The concentrated culture supernatant was dialyzed against 5 L of 50 mM Tris/200 mM NaCl/1 mM MgCl2/20 μM ZnCl2 twice and used as an enzyme source (enzyme solution). The substrate pNPP (ProteoChem Inc.) was adjusted to 3.1 mM with Milli-Q water, and a solution of each test compound dissolved in dimethyl sulfoxide (DMSO; Wako Pure Chemical Industries, Ltd.) by 6 serial dilutions at a 5-fold common ratio from 100 μM or DMSO was added thereto at a final concentration of 1% by volume. The enzyme solution adjusted to 2 μg/mL with an assay buffer (200 mM Tris/2 mM MgCl2/0.04 mM ZnCl2/0.01% Tween 20) was added in the same amount of the substrate solution and incubated at room temperature for 60 minutes. Then, the absorbance (ABS: 405 nm) was measured using a microplate reader (model plus 384, Molecular Devices, LLC), and the concentration of produced p-nitrophenol was calculated.

| SMILES | pIC50 |
| --- | --- |
| Cc1cncc(S(=O)(=O)Nc2c(F)cc(Cl)cc2-c2ccc(C(C)C(=O)O)cc2)c1 (racemic) [Example 32, 2-{5′-Chloro-3′-fluoro-2′-[(5-methylpyridine-3-sulfonyl)amino][1,1′-biphenyl]-4-yl}propanoic acid] | 9.77 |
| CC(C)Oc1cncc(S(=O)(=O)Nc2c(F)cc(Cl)cc2-c2ccc(OC(C)(C)C(=O)O)cc2)c1 [Example 26, 2-{[5′-Chloro-3′-fluoro-2′-({5-[(propan-2-yl)oxy]pyridine-3-sulfonyl}amino)[1,1′-biphenyl]-4-yl]oxy}-2-methylpropanoic acid] | 9.72 |
| Cc1cncc(S(=O)(=O)Nc2c(F)cc(Cl)cc2-c2ccc(CC(=O)O)cc2)c1C [Example 12, {5′-Chloro-2′-[(4,5-dimethylpyridine-3-sulfonyl)amino]-3′-fluoro[1,1′-biphenyl]-4-yl}acetic acid] | 10.00 |
| Cc1cncc(S(=O)(=O)Nc2c(F)cc(Cl)cc2-c2ccc(OC(C)(C)C(=O)O)c(F)c2)c1 [Example 27, 2-({5′-Chloro-3,3′-difluoro-2′-[(5-methylpyridine-3-sulfonyl)amino][1,1′-biphenyl]-4-yl}oxy)-2-methylpropanoic acid] | 9.17 |
| Cc1cncc(S(=O)(=O)Nc2c(F)cc(Cl)cc2-c2ccc(OCC(=O)O)cc2)c1 [Example 17, ({5′-Chloro-3′-fluoro-2′-[(5-methylpyridine-3-sulfonyl)amino][1,1′-biphenyl]-4-yl}oxy)acetic acid] | 9.52 |
| COc1cncc(S(=O)(=O)Nc2c(Cl)cc(Cl)cc2-c2ccc(CC(=O)O)cc2)c1 [Example 22, {3′,5′-Dichloro-2′-[(5-methoxypyridine-3-sulfonyl)amino][1,1′-biphenyl]-4-yl}acetic acid] | 9.55 |
| CCc1cncc(S(=O)(=O)Nc2c(F)cc(Cl)cc2-c2ccc(CCC(=O)O)cc2)c1 [Example 29, 3-{5′-Chloro-2′-[(5-ethylpyridine-3-sulfonyl)amino]-3′-fluoro[1,1′-biphenyl]-4-yl}propanoic acid] | 9.74 |
| CC(C)Oc1cncc(S(=O)(=O)Nc2c(F)cc(Cl)cc2-c2ccc(CCC(=O)O)cc2)c1 [Example 30, 3-[5′-Chloro-3′-fluoro-2′-({5-[(propan-2-yl)oxy]pyridine-3-sulfonyl}amino)[1,1′-biphenyl]-4-yl]propanoic acid] | 9.62 |
| Cc1ncncc1S(=O)(=O)Nc1c(F)cc(Cl)cc1-c1ccc(OC(C)(C)C(=O)O)cc1 [Example 23, 2-({5′-Chloro-3′-fluoro-2′-[(4-methylpyrimidine-5-sulfonyl)amino][1,1′-biphenyl]-4-yl}oxy)-2-methylpropanoic acid] | 8.62 |
| COc1cncc(S(=O)(=O)Nc2c(Cl)cc(Cl)cc2-c2ccc(OC(C)C(=O)O)cc2)c1 (stereo not drawn) [Example 19, 2-({3′,5′-Dichloro-2′-[(5-methoxypyridine-3-sulfonyl)amino][1,1′-biphenyl]-4-yl}oxy)propanoic acid] | 9.31 |
| CC(C)(Oc1ccc(-c2cc(Cl)cc(F)c2NS(=O)(=O)c2cncc(S(C)(=O)=O)c2)cc1)C(=O)O [Example 28, 2-[(5′-Chloro-3′-fluoro-2′-{[5-(methanesulfonyl)pyridine-3-sulfonyl]amino}[1,1′-biphenyl]-4-yl)oxy]-2-methylpropanoic acid] | 8.59 |
| CC(Oc1ccc(-c2cc(Cl)cc(Cl)c2NS(=O)(=O)c2cccnc2)cc1)C(=O)O (stereo not drawn) [Example 13, 2-({3′,5′-Dichloro-2′-[(pyridine-3-sulfonyl)amino][1,1′-biphenyl]-4-yl}oxy)propanoic acid] | 8.46 |
| CCC(C(=O)O)c1ccc(-c2cc(Cl)cc(F)c2NS(=O)(=O)c2cncc(C)c2)cc1 (stereo not drawn) [Example 33, 2-{5′-Chloro-3′-fluoro-2′-[(5-methylpyridine-3-sulfonyl)amino][1,1′-biphenyl]-4-yl}butanoic acid] | 9.85 |
| O=C(O)COc1ccc(-c2cc(Cl)cc(F)c2NS(=O)(=O)c2cccnc2)cc1 [Example 16, ({5′-Chloro-3′-fluoro-2′-[(pyridine-3-sulfonyl)amino][1,1′-biphenyl]-4-yl}oxy)acetic acid] | 8.62 |
| CCc1ccncc1S(=O)(=O)Nc1c(F)cc(Cl)cc1-c1ccc(OC(C)(C)C(=O)O)cc1 [Example 24, 2-({5′-Chloro-2′-[(4-ethylpyridine-3-sulfonyl)amino]-3′-fluoro[1,1′-biphenyl]-4-yl}oxy)-2-methylpropanoic acid] | 9.70 |
| Cc1cncc(S(=O)(=O)Nc2c(Cl)cc(Cl)cc2-c2ccc(OCC(=O)O)cc2)c1 [Example 15, ({3′,5′-Dichloro-2′-[(5-methylpyridine-3-sulfonyl)amino][1,1′-biphenyl]-4-yl}oxy)acetic acid] | 9.05 |
| O=C(O)COc1ccc(-c2cc(Cl)cc(Cl)c2NS(=O)(=O)c2cccnc2)cc1 [Example 1, ({3′,5′-Dichloro-2′-[(pyridine-3-sulfonyl)amino][1,1′-biphenyl]-4-yl}oxy)acetic acid] | 8.26 |
| COc1cncc(S(=O)(=O)Nc2c(Cl)cc(Cl)cc2-c2ccc(S(C)(=O)=O)c(F)c2)c1 [Example 21, N-[3,5-Dichloro-3′-fluoro-4′-(methanesulfonyl)[1,1′-biphenyl]-2-yl]-5-methoxypyridine-3-sulfonamide] | 8.92 |
| CC(C)(Oc1ccc(-c2cc(Cl)cc(Cl)c2NS(=O)(=O)c2cccnc2)cc1)C(=O)O [Example 14, 2-({3′,5′-Dichloro-2′-[(pyridine-3-sulfonyl)amino][1,1′-biphenyl]-4-yl}oxy)-2-methylpropanoic acid] | 8.59 |
| Cc1cncc(S(=O)(=O)Nc2c(Cl)cc(Cl)cc2-c2ccc(OC(C)(C)C(=O)O)cc2)c1 [Example 2, 2-({3′,5′-Dichloro-2′-[(5-methylpyridine-3-sulfonyl)amino][1,1′-biphenyl]-4-yl}oxy)-2-methylpropanoic acid] | 9.30 |
| COc1cncc(S(=O)(=O)Nc2c(Cl)cc(Cl)cc2-c2ccc(C(F)(F)C(=O)O)cc2)c1 [Example 20, {3′,5′-Dichloro-2′-[(5-methoxypyridine-3-sulfonyl)amino][1,1′-biphenyl]-4-yl}(difluoro)acetic acid] | 9.44 |
| COc1cncc(S(=O)(=O)Nc2c(F)cc(Cl)cc2-c2ccc(OC(C)(C)C(=O)O)cc2)c1 [Example 18, 2-({5′-Chloro-3′-fluoro-2′-[(5-methoxypyridine-3-sulfonyl)amino][1,1′-biphenyl]-4-yl}oxy)-2-methylpropanoic acid] | 9.64 |
| COc1ccncc1S(=O)(=O)Nc1c(F)cc(Cl)cc1-c1ccc(OC(C)(C)C(=O)O)cc1 [Example 25, 2-({5′-Chloro-3′-fluoro-2′-[(4-methoxypyridine-3-sulfonyl)amino][1,1′-biphenyl]-4-yl}oxy)-2-methylpropanoic acid] | 9.39 |

system: plasma ALP (80-90% containing TNAP); experiment: Inhibitory test of plasma TNAP activity in B6 mouse; type: in vivo; settings: 0.3 mg/kg orally in 0.5% methylcellulose, average inhibition from 0 hour to 6 hours after administration, activity before administration = 100%
Protocol: (Test Example 3) Inhibitory Test of Plasma TNAP Activity in B6 Mouse (Charles River Laboratories Japan, Inc.)
After blood sampling from the tail vein using a heparin-treated hematocrit capillary tube (EM Meister Hematocrit Capillary Tube, AS ONE Corp.) (as the sample before compound administration), each test compound suspended in a 0.5% methylcellulose solution (powder purchased from Wako Pure Chemical Industries, Ltd. was adjusted to 0.5% with Otsuka distilled water) was administered orally to the mouse (0.3 mg/kg). 1, 2, 4, 6, and 24 hours after the administration, blood was collected from the tail vein using a heparin-treated hematocrit capillary tube to obtain a plasma sample. The plasma sample was added to an assay buffer (1 M Tris, 1 M MgCl2, 20 mM ZnCl2, and water, pH 7.5), and the mixture was left standing for 5 minutes. Then, the absorbance at 405 nm was measured and used as a blank. The substrate pNPP was added to the plasma sample and incubated at room temperature for 180 minutes. Then, the absorbance (ABS: 405 nm) was measured using a microplate reader (model plus 384, Molecular Devices, LLC), and the concentration of produced p-nitrophenol was calculated. The blank was subtracted from all measurement values to calculate TNAP activity at each time point with the TNAP activity of the sample before compound administration defined as 100%.
It was calculated according to the following expression: 100−((plasma ALP activity at 0 hr+plasma ALP activity at 1 hr)*1/2+(plasma ALP activity at 1 hr+plasma ALP activity at 2 hr)*1/2+(plasma ALP activity at 2 hr+plasma ALP activity at 4 hr)*2/2+(plasma ALP activity at 4 hr+plasma ALP activity at 6 hr)*2/2)/6.

| SMILES | Plasma ALP Inhibition (6 h ave. inhibition %) [%] |
| --- | --- |
| Cc1cncc(S(=O)(=O)Nc2c(F)cc(Cl)cc2-c2ccc(CC(=O)O)cc2)c1C [Example 12, {5′-Chloro-2′-[(4,5-dimethylpyridine-3-sulfonyl)amino]-3′-fluoro[1,1′-biphenyl]-4-yl}acetic acid] | 82.2 |
| CCc1cncc(S(=O)(=O)Nc2c(F)cc(Cl)cc2-c2ccc(CCC(=O)O)cc2)c1 [Example 29, 3-{5′-Chloro-2′-[(5-ethylpyridine-3-sulfonyl)amino]-3′-fluoro[1,1′-biphenyl]-4-yl}propanoic acid] | 70.9 |
| CC(C)Oc1cncc(S(=O)(=O)Nc2c(F)cc(Cl)cc2-c2ccc(CCC(=O)O)cc2)c1 [Example 30, 3-[5′-Chloro-3′-fluoro-2′-({5-[(propan-2-yl)oxy]pyridine-3-sulfonyl}amino)[1,1′-biphenyl]-4-yl]propanoic acid] | 69.9 |
| Cc1cncc(S(=O)(=O)Nc2c(F)cc(Cl)cc2-c2ccc(CCC(=O)O)cc2)c1 [Example 4, 3-{5′-Chloro-3′-fluoro-2′-[(5-methylpyridine-3-sulfonyl)amino][1,1′-biphenyl]-4-yl}propanoic acid] | 80.2 |
